US5091365A, “Cyclic peptides as promoters of absorption on administration onto the mucosa” (Hoechst Aktiengesellschaft, priority 1987, dated 1992)
One block for each compound: values may come before it.

Experiments:
female rats [1] = assay: Release of growth hormone (GH) in serum of PMSG-pretreated rats, radioimmunoassay; assay type: in vivo, rat; settings: for finding with other GHRH agonists on addition of bacitracin (GH release): compared with (DAla2) GRF-29 amide: 40 μg without = 20 μg with 0.001M bacitracin
Method: 3. The effect of cyclic peptides of the nasal absorption of GHRH analogs was investigated in the following way: In the same model as described for the ovulatory effect of LHRH, it is possible on the third day after the pretreatment with PMSG to test the release of growth hormone (GH). GH in serum is determined 15-120 minutes after the treatment (for example nasally or rectally) by a specific radioimmunoassay.

[2] = test system: isolated gastric mucosa of the guinea pig; assay: Tolerability: patent blue permeation through isolated guinea pig gastric mucosa
Description: 6. The tolerability of various cyclic peptides as are used as aids to increase absorption can be tested on the isolated gastric mucosa of the guinea pig. [Wirth K, Bickel M & Deutschlander N (1987): Patent blue permeation through the isolated guinea pig gastric mucosa: a quantitative method for the assessment of gastric irritants. Med. Sci. Res. 15, 881.]

female rats [3] = assay: Ovulation induction in PMSG-pretreated, phenobarbital-blocked female rats (number of ova counted); assay type: in vivo, rat
Method: 1. The effect of cyclic peptides on the nasal and rectal absorption of LHRH (gonadorelin) and LHRH agonists (for example buserelin) was investigated in the following way: female rats weighing 60 g are pretreated with horse serum gonadotropin (PMSG) 10 I.U. (day 1, 09:00) for follicle stimulation. On the third day after the pretreatment, the ovulation which spontaneously occurs at about 14:00 is suppressed by injection of phenobarbital (4 mg/animal i.p. around 13:00). The treatment with the test substance (for example LHRH or buserelin intranasally in a physiologically tolerated buffer solution of pH 3.0-7.5 in a volume of 2-20 μl, rectal administration of suppositories etc.) is carried out at about 13:30. This treatment induces ovulation dose-dependently. On the next day of the experiment (day 4) the animals are sacrificed at about 09:00, both uterine tubes are dissected out and, after staining with patent blue, the number of ova is counted under a stereomicroscope (ovulatory effect of the test substances). The increase in the absorption of the test substances from mucosal surfaces is assessed by comparison of the effect on ovulation in the absence or after addition of, for example, bacitracin 0.001-0.05M. It is also possible to use as parameter of the effect in the same design of experiment the dose-dependent increase in luteinizing hormone (LH) in the serum one hour after treatment. [Sandow J, von Rechenberg W & Jerzabek G (1976): The effect of LHRH, prostaglandins and synthetic analogues of LHRH on ovarian metabolism. Europ. J. Obstetr. Gynaec. Reprod. Biol. 6, 185-190.]

male rats [4] = assay: Serum calcium concentration in male rats after intranasal salmon calcitonin; assay type: in vivo, rat; settings: 0.6-1.2 μg of salmon calcitonin intranasal, addition of 0.01M bacitracin, 1-6 h
Method: 5. The effect of cyclic peptides on the absorption of calcitonin and calcitonin analogs (for example salmon calcitonin) can be investigated on male rats weighing 100 or 200 g, for example after intranasal treatment with salmon calcitonin, by determination of the serum calcium concentration over a period of 1-6 h after the treatment. It was found in this that the effect of 0.6-1.2 μg of salmon calcitonin was increased by a factor of 4-6 by addition of, for example, 0.01M bacitracin.

rectal mucosa = assay: Rectal mucosa tolerability of hard fat suppositories in rats; assay type: in vivo, rat; settings: hard fat suppositories with 1 mg of bacitracin, rats weighing 100 g, 3 hours after treatment
Method: Furthermore, the compounds according to the invention cause no sensation of pain in humans on nasal administration of 1 to 200 μl of a concentration of 10^-5 to 10^-1 mol/l. […] Local administration of the same concentration by vaginal, rectal or buccal drug forms (i.e., for example, films, tablets, suppositories) likewise causes no irritation to the mucosa.

female rats [5] = assay: Increase in luteinizing hormone (LH) in serum, same design of experiment in female rats; assay type: in vivo, rat
rat = assay: Increase of absorption of peptide active substances from the mucosa in the rat; assay type: in vivo
Method: 1. The effect of cyclic peptides on the nasal and rectal absorption of LHRH (gonadorelin) and LHRH agonists (for example buserelin) was investigated in the following way: female rats weighing 60 g are pretreated with horse serum gonadotropin (PMSG) 10 I.U. (day 1, 09:00) for follicle stimulation. On the third day after the pretreatment, the ovulation which spontaneously occurs at about 14:00 is suppressed by injection of phenobarbital (4 mg/animal i.p. around 13:00). […] On the next day of the experiment (day 4) the animals are sacrificed at about 09:00, both uterine tubes are dissected out and, after staining with patent blue, the number of ova is counted under a stereomicroscope (ovulatory effect of the test substances). The increase in the absorption of the test substances from mucosal surfaces is assessed by comparison of the effect on ovulation in the absence or after addition of, for example, bacitracin 0.001-0.05M. […]
2. […] It emerged that both bacitracin and colistin and polymyxin B (0.01M) increased the effect of a dose of 10 ng of buserelin, measured by the areas under the curve, by a factor of 3.3-14.
3. […] GH in serum is determined 15-120 minutes after the treatment (for example nasally or rectally) by a specific radioimmunoassay.

male rats [6] = assay: Corticosterone release in serum of male rats after nasal ACTH analog, radioimmunoassay; assay type: in vivo, rat; settings: over 3 h after nasal alsactide (ACTH-17) 5 μg in the presence of 0.01M bacitracin
Method: 4. The effect of cyclic peptides on the absorption of ACTH (corticotropin) and ACTH analogs was investigated in male rats (weighing 100 g) after treatment under anesthesia with pentobarbital or ether. The corticosterone release in the serum was determined by a specific radioimmunoassay as a parameter of the effect. It emerged that the corticosterone release over 3 h after nasal treatment, for example, with the ACTH analog alsactide (ACTH-17) in a dose of 5 μg was increased by a factor of 5 in the presence of 0.01M bacitracin.

male rats [7] = assay: LH release in male rats under urethane anesthesia over 6-7 hours; assay type: in vivo, rat; settings: aid 0.01M, 10 ng of buserelin
Method: 2. An example of another method suitable for detecting the enhancement of the effect due to increased absorption is determination of the LH release in male rats (weighing 100 g, under urethane anesthesia). […] It emerged that both bacitracin and colistin and polymyxin B (0.01M) increased the effect of a dose of 10 ng of buserelin, measured by the areas under the curve, by a factor of 3.3-14.

Compound: (DAla2, NLeu27) GRF-29 amide
- finding with other GHRH agonists on addition of bacitracin (GH release) (female rats [1]): similar

Compound: bacitracin
- concentration that can be placed on the mucosa without damage [2]: more than 0.006 M
- dose of LHRH giving the same ovulatory effect, with aid (female rats [3]; LHRH in a solution of 0.001M bacitracin, equals effect of 8 μg without aid): 2 µg
- dose of buserelin giving the same ovulatory effect, with aid (female rats [3]; buserelin in a solution of 0.001M bacitracin, equals effect of 80 ng without aid): 20 ng
- dose of buserelin at which ovulation was induced, rectal suppositories, after addition of bacitracin (female rats [3]; rectal treatment of rats with buserelin suppositories plus bacitracin): 50 ng
- increase of the effect of salmon calcitonin (serum calcium), factor (male rats [4]): 4-6
- inflammatory change of the rectal mucosa (rectal mucosa): no inflammatory change
- enhancement of absorption, factor, from LH release by buserelin (female rats [5]; buserelin in the presence of 0.001M bacitracin): more than 3
- increase of absorption of LHRH agonists, GHRH agonists and similar active substances, factor (rat; addition of 0.001M bacitracin): 3-4
- increase of corticosterone release, factor (male rats [6]): 5
- increase of the effect of buserelin on LH release, areas under the curve, factor (male rats [7]): 3.3-14
- dose of (DAla2) GRF-29 amide giving corresponding GH release effect, with bacitracin (female rats [1]; i.n., addition of 0.001M bacitracin, equals effect of 40 μg without): 20 µg

- concentration required to increase absorption in the rat (rat; rat, in vivo): 0.02 M
Compound: C[C@H](CCC(=O)O)[C@H]1CC[C@H]2[C@@H]3CC[C@@H]4C[C@H](O)CC[C@]4(C)[C@H]3C[C@H](O)[C@]12C [deoxycholic acid]

Compound: (DAla2) GRF-29 amide
- dose of (DAla2) GRF-29 amide giving corresponding GH release effect, without bacitracin (female rats [1]; i.n., without bacitracin): 40 µg

Compound: colistin
- enhancement of LHRH effect on investigation of the LH release (female rats [5]; LHRH in the presence of 0.001M colistin): this effect also emerged
- increase of the effect of buserelin on LH release, areas under the curve, factor (male rats [7]): 3.3-14

Compound: CCNC(=O)[C@@H]1CCCN1C(=O)[C@H](CCCNC(=N)N)NC(=O)[C@H](CC(C)C)NC(=O)[C@@H](COC(C)(C)C)NC(=O)[C@H](Cc1ccc(O)cc1)NC(=O)[C@H](CO)NC(=O)[C@H](Cc1c[nH]c2ccccc12)NC(=O)[C@H](Cc1cnc[nH]1)NC(=O)[C@@H]1CCC(=O)N1 [buserelin]
- dose of buserelin giving the same ovulatory effect, without aid (female rats [3]; buserelin in physiological saline containing 0.1% gelatin): 80 ng
- dose of buserelin at which ovulation occurred, rectal suppositories, without bacitracin (female rats [3]; rectal treatment of rats with buserelin suppositories, no aid): 400 ng

Compound: CC(C)C[C@H](NC(=O)CNC(=O)[C@H](Cc1ccc(O)cc1)NC(=O)[C@H](CO)NC(=O)[C@H](Cc1c[nH]c2ccccc12)NC(=O)[C@H](Cc1cnc[nH]1)NC(=O)[C@@H]1CCC(=O)N1)C(=O)N[C@@H](CCCNC(=N)N)C(=O)N1CCC[C@H]1C(=O)NCC(N)=O [LHRH, LHRH (gonadorelin)]
- dose of LHRH giving the same ovulatory effect, without aid (female rats [3]; LHRH in physiological saline containing 0.1% gelatin): 8 µg

Compound: polymyxin B
- increase of the effect of buserelin on LH release, areas under the curve, factor (male rats [7]): 3.3-14

Compound: (Leu27, Gly45) GHRH (1-44)
- finding with other GHRH agonists on addition of bacitracin (GH release) (female rats [1]): similar
